# Laboratory results published in US20230070731A1, “COMPOSITIONS FOR SMALL MOLECULE CONTROL OF PRECISE BASE EDITING OF TARGET NUCLEIC ACIDS AND METHODS OF USE THEREOF” (THE TRUSTEES OF THE UNIVERSITY OF PENNSYLVANIA, priority 2020, published 2023).
# What was measured:
# BL21(DE3) E. coli = experiment: Bacterial DNA deaminase rifampicin mutagenesis assay (acquired rifampin resistance); assay type: cell-based; settings: expression in E. coli
# Protocol: In initial studies, a foreign protein/domain was inserted into an enhanced hyperactive version of AID described in U.S. patent application Ser. No. 16/025,261 (See for example, SEQ ID NO: 20 of the '261 patent application) which is incorporated herein by reference as though set forth in full. This mutant version of the human DNA deaminase AID, involved in antibody maturation was assessed and the loop regions which appeared to be tolerant to insertion of control elements (e.g., Green Fluorescent Protein GFP fragments) were identified as described hereinbelow. Several candidate locations for insertion were identified. We used an E. coli-based rifampin mutagenesis assay to evaluate activity (See Kohli et al., J Biol Chem. (2009) 284:pages 22898-904). In this assay we measure the activity level of a mutator by measuring how many E. coli can be turned resistant to the antibiotic rifampin when the enzyme is turned on.
# The mutation frequency of various DNA deaminases, including insertion constructs, were determined using a modified version of previously reported rifampin mutagenesis assay (Kohli, JBC 2009). […] The mutation frequencies were then calculated by the ratio of rifampicin resistant colonies to total population. […]
# [1] = test system: fluorescein (FAM)-labeled oligonucleotide substrate containing a single cytosine; experiment: In vitro DNA deaminase oligonucleotide assay; assay type: biochemical; settings: result in words
# Protocol: For in vitro assays, purified intact, optGFP-inserted, or split DNA deaminases were expressed in BL21(DE3) cells that co-express the Trigger Factor (TF) chaperone, as previously described^33. Briefly, 600 mL cultures were grown to an OD600 of 0.6 at 37° C. Cultures were shifted to 16° C. for 16 hours after induction with 1 mM IPTG. For AID variants, the pelleted cells were resuspended in 50 mM Tris-Cl (pH 7.5) 150 mM NaCl, 10% glycerol (wash buffer) and lysed through sonication. The soluble fraction was filtered after high-speed centrifugation and incubated with 3 mL of Amylose Resin (NEB) for 1 hr at 4° C. The resin was washed extensively prior to elution with wash buffer plus 10 mM maltose. Total protein was quantified by comparison to a BSA standard curve. For A3A variants, the pelleted cells were resuspended in 50 mM Tris-Cl (pH 7.5) 150 mM NaCl, 10% glycerol, 25 mM imidazole (wash buffer) and lysed through sonication. The soluble fraction was filtered after high-speed centrifugation and incubated with 3 mL of HisPur cobalt resin (Thermo) for 1 hr at 4° C. […]
# For the in vitro assay, a fluorescein (FAM)-labeled oligonucleotide substrate was used containing a single cytosine, along with a product control oligonucleotide containing uracil at the same location. […] Product formation was quantified using ImageJ by taking the ratio of substrate to product under each condition. […]
Substance,Rif^R increase relative to catalytically inactive mutant AID(E58A) (BL21(DE3) E. coli),in vitro deaminase activity [1]
AID(WT): unmutated AID (activation induced deaminase),12 fold,–
A3A: human A3 enzyme APOBEC3A DNA deaminase,–,tolerated optGFP insertion
